Results as given in article PMC12767106, “In Situ Assembly of Transformable Monopeptide on Activated Neutrophils Attenuates NETs‐Induced Hepatocellular Carcinoma Metastasis by Disrupting NE Nuclear Translocation” (Advanced Science, 2025).

What was measured:
[1] = target: T1, NE of activated neutrophils (Mus musculus, UniProt Q3UP87); assay: Quantitative analysis of NE activity (NETosis Assay Kit); assay type: cell-based; settings: activated neutrophils (PMA), 4 h, NPs 0-200 µM; FTP-NPs result stated at 50 µM
T1 construct: endogenous in cells
T1 sequence (Q3UP87 27-265): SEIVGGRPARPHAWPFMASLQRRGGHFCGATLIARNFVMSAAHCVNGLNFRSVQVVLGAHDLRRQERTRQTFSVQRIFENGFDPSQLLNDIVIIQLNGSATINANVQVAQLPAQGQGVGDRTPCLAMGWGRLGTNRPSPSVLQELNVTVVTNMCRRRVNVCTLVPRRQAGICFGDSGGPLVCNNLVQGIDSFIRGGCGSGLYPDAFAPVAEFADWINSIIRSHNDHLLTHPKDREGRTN
Procedure: (§1) Submitted to Advanced Science
Neutrophil Elastase Activity Assay
To evaluate the distribution of active NE on the surface and inside of neutrophils, we used a kit (AkrivisBio’s Neutrophil Elastase Activity Assay, MA-0156), seeded neutrophils in confocal microscopy dishes, and then treated them with NFTP-NPs (50 µM, medium: DMSO = 99:1, v/v), FTP-NPs (50 µM, medium: DMSO = 99:1, v/v), PMA+NFTP-NPs (50 µM, medium: DMSO = 99:1, v/v), and PMA+FTP-NPs (50 µM, medium: DMSO = 99:1, v/v) at 37°C. Because the Neutrophil elastase in the kit cleaves a concrete fluorogenic substrate which releases AFC, providing intense fluorescence, 50 μl of MeOSucc-AAPV-AFC mix (Assay Buffer: MeOSucc-AAPV-AFC = 48:2) was added at 4 h, and after incubation for 1 h, the samples were examined by CLSM (LSM980, Zeiss, Germany).
Quantitative analysis of NE activity […]
DMSO = 99:1, v/v) for 4 h to obtain the solution.35,36 Quantitative analysis was carried out by a NETosis Assay Kit (Cayman Chemical, USA).
Quantitative induction analysis of NETs in vitro […]
According to the manufacturer's instructions, MPO -DNA levels in cultured supernatant were analyzed by an ELISA kit (MEIMIAN, China).38 Briefly, samples were added to each well and incubated with anti -MPO and anti-DNA antibodies for 2 h at room temperature. […] The OD value w as then measured by a microplate

activated neutrophils = assay: Retention on neutrophil membrane, flow cytometry of PpIX; assay type: cell-based, mouse; settings: 50 µM, NPs washed off after 4 h, fresh medium for another 8 h
[2] = system: Hepa1-6/luc liver and lung metastasis; assay: Liver and lung metastasis model; assay type: in vivo, mouse; settings: Hepa1-6/luc cells via spleen or tail vein, 300 µM in 200 µL i.v. every two days, 16 days, n = 5
Excerpt: as §1
effector T cells (CD45+CD3+CD8+)/(CD45+CD3+CD4+), tumor cells were stained with anti-CD45-FITC
(Biolegend), anti-CD3ε-PerCP-Cy5.5 (Biolegend), anti-CD4-APC (Biolegend), and anti-CD8a-PE (Biolegend)
antibodies according to the standard protocol. For evaluation of NK cells (CD45+CD3-NK1.1+), tumor cells
were stained with anti-CD45-FITC (Biolegend), anti-CD3-PE (Biolegend) and anti-CD49b-APC (Biolegend)
antibodies and examined using flow cytometry. For MDSCs (CD45+CD11b+Gr-1+) analysis, tumor cells were
stained with anti-CD45-FITC, anti-CD11b-BrilliantViolet-510 (Biolegend), anti -F4/80-PE (Biolegend), and
anti-Gr-1-APC (Biolegend) antibodies for flow cytometry examination (BD FACS Canto SORP, USA). The
software FlowJo V10.6.2 was used for data analysis. To further explore the immunomodulatory effects of FTP-
NPs. Tumor tissues were harvested for immune profiling. Plasma cytokine levels, including IL-6, IL-10, and
TNF-α, were measured using commercially available ELISA kits to assess the immune activation induced by
Experimental liver and lung metastasis model
Six-week-old male C57BL/6J mice (20–25 g) were used to establish liver and lung metastasis models. Hepa1-
6/luc cells (1 × 10^6 cells) were injected into the spleen or tail vein of the mice to induce liver or lung
metastasis, respectively. For the liver metastasis model, Hepa1-6/luc cells were injected into the spleen, allowing
tumor cells to circulate and establish metastases in the liver. For the lung metastasis model, Hepa1-6/luc cells
were injected via the tail vein, leading to the formation of metastases in the lungs. Following cell implantation, […]
euthanized, and metastases were assessed macroscopically. […]
injecting D-Luciferin (150 mg/kg) intraperitoneally, and tumor burden was quantified using the IVIS Spectrum […]
conducted, and metastatic lesions were assessed under an inverted microscope (Axiovert 200, Zeiss, Germany). […]
300 μM per injection) for mice. […] (b) Fluorescence quantized chart […]
experiments. Statistical significance was calculated by one-way ANOVA, *p < 0.050.(c, d) Photographs of lung […]

Substance | activity of NE [1] | PpIX fluorescence on activated neutrophils from 4 h to 12 h (retention) (activated neutrophils) | liver and lung metastasis (bioluminescent signals, number of metastatic foci) [2]
PpIX-GFFVLK-EAIPMSIPPEVK [FTP-NPs] | almost disappeared | persistently strong PpIX fluorescence signals | weakened considerably and significantly lower
PpIX-GGGAAK-EAIPMSIPPEVK [NFTP-NPs, nanoparticles of the non-fibrillar transformable control peptide NFTP] | no significant effect | dropped sharply | obvious metastases
